Data from PMC5350031 (Circulation, 2017).
Read-outs that look alike come from different tables or passages of the source.

Experiments:
[1] = system: Tm-E54K and NTG mice; assay: Echocardiography, cardiac function and morphology after three months treatment; type: in vivo, mouse
[2] = system: hearts of Tm-E54K and NTG mice; assay: Histology, cell cross-sectional area; type: in vivo, mouse
[3] = system: detergent-extracted fiber bundles of NTG and Tm-E54K mice; type: in vivo, mouse; conditions: 3 months treatment; for Hill Coefficient / Max. Tension / pCa50 (Ca^2+ concentration at half-maximal tension): Mean ± SEM, n = 6–8 fibers
[4] = system: myofilament proteins (MLC2v, TnT, cTnI, cMyBP-C); assay: Myofilament protein phosphorylation in hearts of chronically treated mice; type: in vivo, mouse
[5] = system: Akt, GSK-3β, β-catenin, phospholamban, ERK1/2, RSK3, SRF, MYPT1/2, SERCA2; assay: Western blot of signaling pathways in hearts of chronically treated mice; type: in vivo, mouse
[6] = system: β-myosin heavy chain (β-MHC); assay: β-MHC protein expression in hearts of chronically treated mice; type: in vivo, mouse; conditions: Tm-E54K hearts, chronic treatment; untreated Tm-E54K approximately 30%
[7] = system: RSK3, MYPT1/2 and SRF phosphorylation in neonatal rat ventricular myocytes (NRVM); type: cell-based
[8] = Tm-E54K hearts, N = 4–6 hearts per group

Compound: CCCCc1nc(Cl)c(CO)n1Cc1ccc(-c2ccccc2-c2nn[nH]n2)cc1 [losartan]
- cardiac output (in words) [1]: did not have improved cardiac output
- heart rate (in words) [1]: nor an increase in heart rate
- systolic / cardiac function (in words) ([1]; vs. Tm-E54K untreated): no changes in cardiac function
- cross-sectional cell area (in words) ([2]; NTG mice): significant decrease
- cross-sectional cell area (in words) ([2]; Tm-E54K mice): no effect
- maximum tension generation (in words) ([3]; NTG mice): decrease in maximum tension generation
- Hill Coefficient ([3]; NTG mice): 2.10 ± 0.12
- Max. Tension ([3]; NTG mice): 25.73 ± 3.31 ^† mN/mm^2
- pCa50 (Ca^2+ concentration at half-maximal tension) ([3]; NTG mice): significant decrease in pCa50 compared to both TRV067 and untreated NTG groups
- pCa50 (Ca^2+ concentration at half-maximal tension) ([3]; NTG mice, listed as Losartan): 5.60 ± 0.02 ^†
- maximum tension generation (in words) ([3]; Tm-E54K mice): no significant effect
- Hill Coefficient ([3]; Tm-E54K mice): 2.00 ± 0.08
- Max. Tension ([3]; Tm-E54K mice): 27.29 ± 1.07 ^∥ mN/mm^2
- MLC2v phosphorylation (in words) ([4]; Phos-Tag gel electrophoresis, NTG mice, vs. NTG untreated): significantly decreased
- TnT phosphorylation (in words) ([4]; ProQ diamond, Tm-E54K mice, vs. TRV067-treated Tm-E54K, N = 4–6 hearts per group): significant decrease
- cMyBP-C phosphorylation at PKA sites (in words) ([4]; mice treated with TRV067 or losartan): did not observe an increase in other PKA phosphorylatable sites, such as cMyBP-C
- MYPT1/2 phosphorylation (in words) ([5]; NTG and Tm-E54K mice): no effect
- RSK3 phosphorylation (in words) ([5]; NTG and Tm-E54K mice): no effect
- SRF phosphorylation (in words) ([5]; NTG and Tm-E54K mice): no effect
- phospholamban (PLN) phosphorylation at S16 (in words) ([5]; NTG mice, vs. untreated controls): increase
- SERCA2 protein expression (in words) ([5]; Tm-E54K and NTG mice, vs. untreated): no effect
- Akt phosphorylation at S473 (in words) [5, 8]: decreased
- GSK-3β phosphorylation at S9 (in words) [5, 8]: decreased
- β-catenin phosphorylation (in words) [5, 8]: increase
- phospholamban (PLN) phosphorylation at S16 (in words) ([5]; Tm-E54K mice): increase
- phospholamban (PLN) phosphorylation at T17 (in words) ([5]; Tm-E54K mice): not the T17 site
- β-MHC expression, % of the isoform content [6]: approximately 10%
- MYPT1/2 phosphorylation (in words) [7]: no effect
- RSK3 phosphorylation (in words) [7]: no effect
- SRF phosphorylation (in words) [7]: no effect
